The target of experiment [1] is T1, HIV-1 protease (Human immunodeficiency virus type 1 group M subtype B, UniProt P04585). Put plainly: biochemical. The settings on record: for inhibition at 0.123 µM: read-out: HIV-1 Protease % Inhib, dose 0.123 uM; for inhibition at 0.37 µM: read-out: HIV-1 Protease % Inhib, dose 0.370 uM; for inhibition at 1.1 µM: read-out: HIV-1 Protease % Inhib, dose 1.100 uM; for inhibition at 3.3 µM: read-out: HIV-1 Protease % Inhib, dose 3.300 uM; for inhibition at 10 µM: read-out: HIV-1 Protease % Inhib, dose 10.000 uM; for inhibition at 30 µM: read-out: HIV-1 Protease % Inhib, dose 30.000 uM. In short, it runs like this:
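Biotinylated, FITC-labeled peptide substrate (20 μl of 0.2 μM) incubated with HIV-1 protease (10 μl of 0.1 μM) and compound in 0.1 M sodium acetate pH 5.5, 1.0 M NaCl, 0.05% NP-40, 1 h, room temperature, dark. Streptavidin beads then capture uncleaved substrate; filtered labeled product read by fluorescence, giving percent inhibition.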

For experiment [2], the target named is T1, HIV-1 protease. Put plainly: biochemical. The following applies: read-out: HIV-1 FITC KI. The essentials:
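Ki from two-fold serial inhibitor dilutions (24–48 concentrations) with 40 nM HIV-1 protease stock and 200 μM substrate stock, 90 min at room temperature; stopped with avidin beads. Reference inhibitor run in parallel; Ki by nonlinear least-squares fit.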

Take `O=c1oc2c(c(O)c1C(c1cccc(NS(=O)(=O)c3c(F)c(F)c(F)c(F)c3F)c1)C1CC1)CCCCCC2` (centres unmarked) [Example 278, N-[3-[Cyclopropyl(5,6,7,8,9,10-hexahydro-4-hydroxy-2-oxo-2H-cycloocta[b]pyran-3-yl)methyl]phenyl]-2,3,4,5,6-pentafluoro-benzenesulfonamide]: on HIV-1 protease [1], the inhibition at 0.123 µM stood at 36.3%, the inhibition at 0.37 µM came to 78.2%, the inhibition at 1.1 µM is 94.7% and the inhibition at 3.3 µM was determined as 101%. For the same molecule, at HIV-1 protease [1], the inhibition at 10 µM was 102% and the inhibition at 30 µM is 110%. Moreover, the Ki on HIV-1 protease [2] was found to be 13.6 nM.

For `O=c1oc2c(c(O)c1C(c1cccc(NS(=O)(=O)c3cccc(C(F)(F)F)c3)c1)C1CC1)CCCCCC2` (centres unmarked) [Example 280, N-[3-[Cyclopropyl(5,6,7,8,9,10-hexahydro-4-hydroxy-2-oxo-2H-cycloocta[b]pyran-3-yl)methyl]phenyl]-3-(trifluoromethyl)-benzenesulfonamide], at HIV-1 protease [1], the inhibition at 0.123 µM was 69.8%, the inhibition at 0.37 µM stood at 95.1%, the inhibition at 1.1 µM is 101% and the inhibition at 3.3 µM was 110%. Further, on HIV-1 protease [1], the inhibition at 10 µM was 110% and the inhibition at 30 µM was 114%. Further, the Ki on HIV-1 protease [2] amounted to 3 nM.

Turning to `O=c1oc2c(c(O)c1C(c1cccc(NS(=O)(=O)c3ccccc3F)c1)C1CC1)CCCCCC2` (centres unmarked) [Example 281, N-[3-[Cyclopropyl(5,6,7,8,9,10-hexahydro-4-hydroxy-2-oxo-2H-cycloocta[b]pyran-3-yl)methyl]phenyl]-2-fluoro-benzenesulfonamide], at HIV-1 protease [1], the inhibition at 0.123 µM was determined as 55.5%, the inhibition at 0.37 µM stood at 93.5%, the inhibition at 1.1 µM is 99.3% and the inhibition at 3.3 µM stood at 109%. Further, at HIV-1 protease [1], the inhibition at 10 µM was 105% and the inhibition at 30 µM worked out at 101%. For the same molecule, the Ki on HIV-1 protease [2] was 10.6 nM.

Consider `O=c1oc2c(c(O)c1C(c1cccc(NS(=O)(=O)c3cc(Cl)cc(Cl)c3O)c1)C1CC1)CCCCCC2` (centres unmarked) [Example 284], for which, at HIV-1 protease [1], the inhibition at 0.123 µM worked out at 37.5%, the inhibition at 0.37 µM was 77%, the inhibition at 1.1 µM amounted to 99.8% and the inhibition at 3.3 µM stood at 107%. At HIV-1 protease [1], the inhibition at 10 µM stood at 107% and the inhibition at 30 µM was found to be 104%. Further, the Ki on HIV-1 protease [2] amounted to 12.2 nM.

Regarding `O=c1oc2c(c(O)c1C(c1cccc(NS(=O)(=O)c3ccccc3C(F)(F)F)c1)C1CC1)CCCCCC2` (centres unmarked) [Example 286, N-[3-[Cyclopropyl(5,6,7,8,9,10-hexahydro4-hydroxy-2-oxo-2H-cycloocta[b]pyran-3-yl)methyl]phenyl]-2-(trifluoromethyl)-benzenesulfonamide], on HIV-1 protease [1], the inhibition at 0.123 µM is 30%, the inhibition at 0.37 µM was found to be 62.4%, the inhibition at 1.1 µM was 83.3% and the inhibition at 3.3 µM is 92.3%. Moreover, at HIV-1 protease [1], the inhibition at 10 µM was 97.4% and the inhibition at 30 µM was determined as 93.7%. Besides, the Ki at HIV-1 protease [2] worked out at 21.4 nM.

As to `O=c1oc2c(c(O)c1C(c1cccc(NS(=O)(=O)c3cccc4nonc34)c1)C1CC1)CCCCCC2` (centres unmarked) [Example 290, N-[3-[Cyclopropyl(5,6,7,8,9,10-hexahydro-4-hydroxy-2-oxo-2H-cycloocta[b]pyran-3-yl)methyl]phenyl]-4-benzofurazansulfonamide], at HIV-1 protease [1], the inhibition at 0.123 µM turned out to be 90.3%, the inhibition at 0.37 µM is 115%, the inhibition at 1.1 µM was found to be 123% and the inhibition at 3.3 µM came to 119%. Also, on HIV-1 protease [1], the inhibition at 10 µM was found to be 126% and the inhibition at 30 µM was 114%. The Ki on HIV-1 protease [2] came to 2.7 nM.

On to `Cc1nn(C)c(Cl)c1S(=O)(=O)Nc1cccc(C(c2c(O)c3c(oc2=O)CCCCCC3)C2CC2)c1` (centres unmarked) [Example 294, 5-Chloro-N-[3-[cyclopropyl(5,6,7,8,9,10-hexahydro-4-hydroxy-2-oxo-2H-cycloocta[b]pyran-3-yl)methyl]phenyl]-1,3-dimethyl-1H-pyrazole-4-sulfonamide], for which, at HIV-1 protease [1], the inhibition at 0.37 µM turned out to be 20.9%, the inhibition at 1.1 µM came to 52.9%, the inhibition at 3.3 µM is 81.1% and the inhibition at 10 µM was found to be 94.7%. Also, the inhibition at 30 µM on HIV-1 protease [1] stood at 110%. In addition, the Ki at HIV-1 protease [2] was determined as 139 nM.

Turning to `O=C(NCc1ccc(S(=O)(=O)Nc2cccc(C(c3c(O)c4c(oc3=O)CCCCCC4)C3CC3)c2)s1)c1ccccc1` (centres unmarked) [Example 296, N-[[5-[[[3-[Cyclopropyl(5,6,7,8,9,10-hexahydro-4-hydroxy-2-oxo-2H-cycloocta[b]pyran-3-yl)methyl]phenyl]amino]sulfonyl]-2-thienyl]methyl]-benzamide], on HIV-1 protease [1], the inhibition at 0.123 µM is 14.6%, the inhibition at 0.37 µM stood at 74.8%, the inhibition at 1.1 µM is 95.5% and the inhibition at 3.3 µM was 104%. On HIV-1 protease [1], the inhibition at 10 µM amounted to 108% and the inhibition at 30 µM is 114%. Also, at HIV-1 protease [2], the Ki came out at 24 nM.

With `O=c1oc2c(c(O)c1C(c1cccc(NS(=O)(=O)c3cc(S(=O)(=O)c4ccccc4)cs3)c1)C1CC1)CCCCCC2` (centres unmarked) [Example 298, N-[3-[Cyclopropyl(5,6,7,8,9,10-hexahydro-4-hydroxy-2-oxo-2H-cycloocta[b]pyran-3-yl)methyl]phenyl]4-(phenylsulfonyl)-2-thiophenesulfonamide], on HIV-1 protease [1], the inhibition at 0.123 µM worked out at 67.4%, the inhibition at 0.37 µM is 84.6%, the inhibition at 1.1 µM was determined as 94.6% and the inhibition at 3.3 µM is 97.5%. On HIV-1 protease [1], the inhibition at 10 µM stood at 101% and the inhibition at 30 µM stood at 100%. Further, the Ki at HIV-1 protease [2] is 2.5 nM.

Take `O=c1oc2c(c(O)c1C(c1cccc(NS(=O)(=O)c3ccc(S(=O)(=O)c4ccccc4)s3)c1)C1CC1)CCCCCC2` (centres unmarked) [Example 299, N-[3-[Cyclopropyl(5,6,7,8,9,10-hexahydro-4-hydroxy-2-oxo-2H-cycloocta[b]pyran-3-yl)methyl]phenyl]-5-(phenylsulfonyl)-2-thiophenesulfonamide]: at HIV-1 protease [1], the inhibition at 0.123 µM amounted to 78.5%, the inhibition at 0.37 µM is 97.8%, the inhibition at 1.1 µM amounted to 97.5% and the inhibition at 3.3 µM came to 91.7%. Also, on HIV-1 protease [1], the inhibition at 10 µM came to 104% and the inhibition at 30 µM was found to be 98.4%. In addition, the Ki on HIV-1 protease [2] was 2.3 nM.

As for `O=c1oc2c(c(O)c1C(c1cccc(NS(=O)(=O)c3ccc(Cl)s3)c1)C1CC1)CCCCCC2` (centres unmarked) [Example 301, 5-Chloro-N-[3-[cyclopropyl(5,6,7,8,9,10-hexahydro-4-hydroxy-2-oxo-2H-cycloocta[b]pyran-3-yl)methyl]phenyl]-2-thiophenesulfonamide], at HIV-1 protease [1], the inhibition at 0.123 µM amounted to 74.7%, the inhibition at 0.37 µM was 91.2%, the inhibition at 1.1 µM is 102% and the inhibition at 3.3 µM was 100%. On HIV-1 protease [1], the inhibition at 10 µM is 104% and the inhibition at 30 µM was 114%. The Ki at HIV-1 protease [2] was 4.8 nM.

For `O=c1oc2c(c(O)c1C(c1cccc(NS(=O)(=O)c3cc(Cl)c(Cl)s3)c1)C1CC1)CCCCCC2` (centres unmarked) [Example 302, 4,5-Dichloro-N-[3-[cyclopropyl(5,6,7,8,9,10-hexahydro-4-hydroxy-2-oxo-2H-cycloocta[b]pyran-3-yl)methyl]phenyl]-2-thiophenesulfonamide], on HIV-1 protease [1], the inhibition at 0.123 µM came out at 78.6%, the inhibition at 0.37 µM was found to be 97.8%, the inhibition at 1.1 µM came to 105% and the inhibition at 3.3 µM was determined as 113%. For the same molecule, on HIV-1 protease [1], the inhibition at 10 µM was found to be 115% and the inhibition at 30 µM worked out at 112%. Also, on HIV-1 protease [2], the Ki came out at 2.7 nM.

Consider `O=c1oc2c(c(O)c1C(c1cccc(NS(=O)(=O)c3cc(Br)c(Br)s3)c1)C1CC1)CCCCCC2` (centres unmarked) [Example 303, 4,5-Dibromo-N-[3-[cyclopropyl(5,6,7,8,9,10-hexahydro-4-hydroxy-2-oxo-2H-cycloocta[b]pyran-3-yl)methyl]phenyl]-2-thiophenesulfonamide], for which, at HIV-1 protease [1], the inhibition at 0.123 µM came to 67.4%, the inhibition at 0.37 µM is 96.5%, the inhibition at 1.1 µM was found to be 97.7% and the inhibition at 3.3 µM amounted to 109%. Moreover, on HIV-1 protease [1], the inhibition at 10 µM came out at 110% and the inhibition at 30 µM worked out at 98%. Further, the Ki at HIV-1 protease [2] amounted to 5 nM.

`O=c1oc2c(c(O)c1C(c1cccc(NS(=O)(=O)c3cc(Cl)sc3Cl)c1)C1CC1)CCCCCC2` (centres unmarked) [Example 304, 2,5-Dichloro-N-[3-[cyclopropyl(5,6,7,8,9,10-hexahydro-4-hydroxy-2-oxo-2H-cycloocta[b]pyran-3-yl)methyl]phenyl]-3-thiophenesulfonamide]: at HIV-1 protease [1], the inhibition at 0.123 µM came to 25.7%, the inhibition at 0.37 µM amounted to 60.2%, the inhibition at 1.1 µM is 85.9% and the inhibition at 3.3 µM came out at 97.8%. On HIV-1 protease [1], the inhibition at 10 µM is 104% and the inhibition at 30 µM stood at 95.6%. In addition, the Ki on HIV-1 protease [2] came out at 27.9 nM.

Consider `CC(=O)Nc1ccc(S(=O)(=O)Nc2cccc(C(c3c(O)c4c(oc3=O)CCCCCC4)C3CC3)c2)cc1` (centres unmarked) [Example 307, N-[4-[[[3-[Cyclopropyl(5,6,7,8,9,10-hexahydro-4-hydroxy-2-oxo-2H-cycloocta[b]pyran-3-yl)methyl]phenyl]amino]sulfonyl]phenyl]-acetamide], for which, on HIV-1 protease [1], the inhibition at 0.123 µM turned out to be 19.5%, the inhibition at 0.37 µM was 66.5%, the inhibition at 1.1 µM is 85.2% and the inhibition at 3.3 µM came to 97.8%. At HIV-1 protease [1], the inhibition at 10 µM amounted to 105% and the inhibition at 30 µM was 90.3%. Moreover, on HIV-1 protease [2], the Ki worked out at 7.6 nM.

Broadly, the Ki is the equilibrium dissociation constant of an inhibitor or competing ligand from its target.

These data come from patent publication US5686486A, “4-hydroxy-benzopyran-2-ones and 4-hydroxy-cycloalkyl[b]pyran-2-ones useful to treat retroviral infections” (priority 1995, dated 1997).
